# Patent publication US20190225650A1, “PEPTIDOMIMETIC MACROCYCLES AND USE THEREOF IN REGULATING HIF1ALPHA” (AILERON THERAPEUTICS, INC., priority 2013, published 2019)
# Bridge positions count the residues as written; N and C are the ends. Square brackets hold non-standard residues; d marks the D form. Peptide text beside a SMILES is read from it. S5 = C=CCCC[C@](C)(N)C(=O)O; Nle = CCCC[C@H](N)C(=O)O
# What was measured:
# [1] = target: T1, flag-tagged HIF1α (AA 786-826) / His6-tagged p300 (AA 323-423) complex (Homo sapiens, UniProt Q09472); assay: HIF1α p300 displacement assay (TR FRET, +CHAPS); type: binding; conditions: read-out: IC50 (nM) (HIF1α_p300 Displacement + CHAPS)
# T1 construct: His6-tagged p300 (AA 323-423); made in house; host or cells: E. coli (pETDuet vector)
# In short: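 The co-expressed flag-HIF1α (786-826)/His6-p300 (323-423) complex, purified from E. coli with 0.1 mM ZnSO4, was used at 300 nM final with competitor peptides for 1 h at room temperature. Buffer was 150 mM NaCl, 20 mM HEPES pH 7.4, 7.5 mM CHAPS and 1 mM DTT. Anti-Flag-K (0.5 μM) and anti-His-D2 (4 nM) were then added for 2 h, and IC50s were fitted from the TR-FRET ratio.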
# HRE-bla ME-180 cells [2] = assay: Reporter gene assay (HRE-bla ME-180 HIF reporter, GeneBLAzer); type: cell-based, human; conditions: for EC50: 24 hour normoxia
# In short: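 A FRET β-lactamase readout of HIF transcription was used. After compound treatment in 0.3% DMSO/media under normoxic conditions, 20 μl of 6× LiveBLAzer-FRET B/G (CCF4-AM) substrate was added. Plates sat 3 hr at room temperature in the dark and were read at 409 Ex/460Em and 409Ex/530Em on a Synergy 2. Inhibition was compared against DMSO vehicle controls, with chetomin as positive control.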
# HRE-bla ME-180 cells [3] = assay: Cell proliferation assay (viability, MTT, 1% FBS); type: cell-based, human
# In short: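 ME-180 cells (2×10^4/well) in Opti-MEM with 1% FBS were pretreated 16 h under normoxia (21% O2), vehicle 0.5% DMSO final. Incubation then continued under normoxia or hypoxia (1% O2); viable cells quantified by MTT-type CellTiter 96 assay.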
Compound,IC50 [1],EC50 (HRE-bla ME-180 cells [2]),18 h Avg % max inhibition at top conc (HIF Rptr-24 hrs normoxia) (μM) (HRE-bla ME-180 cells [2]),Viability 1% FBS AVG (MTT V3-24 hr Normoxia) (μM) (HRE-bla ME-180 cells [3])
CCCC[C@H](NC(=O)[C@H](Cc1ccccc1)NC(=O)[C@@H](NC(=O)[C@H](C)NC(=O)[C@H](CCC(N)=O)NC(=O)[C@H](CC(=O)O)NC(=O)[C@@H](NC(=O)[C@H](Cc1ccccc1)NC(C)=O)[C@@H](C)CC)C(C)C)C(=O)N[C@@]1(C)CCCC=CCCC[C@@](C)(C(=O)N[C@@H](Cc2c[nH]cn2)C(=O)N[C@@H](C)C(=O)N[C@@H](CC(C)C)C(=O)N[C@@H](CC(C)C)C(N)=O)NC(=O)[C@H]([C@@H](C)CC)NC(=O)[C@H](C(C)C)NC(=O)[C@H](CC(N)=O)NC1=O [SP-259] (Ac-FIDQAVF[Nle][S5]NVI[S5]HALL-NH2; staple 9-13),> 700 nM,≤ 5 µM,++++ (≥50: ++++),+ (<5: +)
CCCC[C@H](NC(=O)[C@H](Cc1ccccc1)NC(=O)[C@@H](NC(=O)[C@H](C)NC(=O)[C@H](CCC(N)=O)NC(=O)[C@H](CC(=O)O)NC(=O)[C@@H](NC(=O)[C@H](Cc1ccccc1)NC(C)=O)[C@@H](C)CC)C(C)C)C(=O)N[C@@]1(C)CCCC=CCCC[C@@](C)(C(=O)N[C@@H](CCC(N)=O)C(=O)N[C@@H](C)C(=O)N[C@@H](CC(C)C)C(=O)N[C@@H](CC(C)C)C(N)=O)NC(=O)[C@H]([C@@H](C)CC)NC(=O)[C@H](C(C)C)NC(=O)[C@H](Cc2c[nH]cn2)NC1=O [SP-260] (Ac-FIDQAVF[Nle][S5]HVI[S5]QALL-NH2; staple 9-13),> 700 nM,≤ 5 µM,++++ (≥50: ++++),+ (<5: +)
CC[C@H](C)[C@H](NC(=O)[C@H](CCCNC(=N)N)NC(=O)[C@H](CC(=O)O)NC(=O)[C@H](CC(C)C)NC(=O)[C@H](C)NC(=O)[C@H](CCSC)NC(=O)[C@]1(C)CCCC=CCCC[C@](C)(NC(=O)[C@H](CCSC)NC(=O)[C@H](Cc2ccccc2)NC(=O)[C@@H](NC(=O)[C@H](C)NC(=O)[C@H](CCC(N)=O)NC(=O)[C@H](CC(=O)O)NC(=O)[C@@H](NC(=O)[C@H](Cc2ccccc2)NC(C)=O)[C@@H](C)CC)C(C)C)C(=O)N[C@@H](CC(C)C)C(=O)N[C@@H](C(C)C)C(=O)N[C@@H]([C@@H](C)CC)C(=O)N1)C(N)=O [SP-268] (Ac-FIDQAVFM[S5]LVI[S5]MALDRI-NH2; staple 9-13),> 700 nM,> 30 µM,+++ (≤25 but <50: +++),++++ (≥30: ++++)
CC[C@H](C)[C@H](NC(=O)[C@H](CCCNC(=N)N)NC(=O)[C@H](CC(N)=O)NC(=O)[C@H](CC(C)C)NC(=O)[C@H](C)NC(=O)[C@H](CCSC)NC(=O)[C@]1(C)CCCC=CCCC[C@](C)(NC(=O)[C@H](CCSC)NC(=O)[C@H](CC(C)C)NC(=O)[C@@H](NC(=O)[C@H](C)NC(=O)[C@H](CCC(N)=O)NC(=O)[C@H](CC(=O)O)NC(=O)[C@@H](NC(=O)[C@H](Cc2ccccc2)NC(C)=O)[C@@H](C)CC)C(C)C)C(=O)N[C@@H](CC(C)C)C(=O)N[C@@H](C(C)C)C(=O)N[C@@H]([C@@H](C)CC)C(=O)N1)C(N)=O [SP-270] (Ac-FIDQAVLM[S5]LVI[S5]MALNRI-NH2; staple 9-13),> 700 nM,> 30 µM,++ (≤10 but <25: ++),++++ (≥30: ++++)
CC[C@H](C)[C@H](NC(=O)[C@H](CCCNC(=N)N)NC(=O)[C@H](CC(=O)O)NC(=O)[C@H](CC(C)C)NC(=O)[C@H](C)NC(=O)[C@H](CCSC)NC(=O)[C@]1(C)CCCC=CCCC[C@](C)(NC(=O)[C@H](CCSC)NC(=O)[C@H](CC(C)C)NC(=O)[C@@H](NC(=O)[C@H](C)NC(=O)[C@H](CCC(N)=O)NC(=O)[C@H](CC(N)=O)NC(=O)[C@@H](NC(=O)[C@H](Cc2ccccc2)NC(C)=O)[C@@H](C)CC)C(C)C)C(=O)N[C@@H](CC(C)C)C(=O)N[C@@H](C(C)C)C(=O)N[C@@H]([C@@H](C)CC)C(=O)N1)C(N)=O [SP-271] (Ac-FINQAVLM[S5]LVI[S5]MALDRI-NH2; staple 9-13),> 700 nM,> 30 µM,+++ (≤25 but <50: +++),++++ (≥30: ++++)

# More lines, main results first:
IC50 [1],EC50 (HRE-bla ME-180 cells [2]),Compound,18 h Avg % max inhibition at top conc (HIF Rptr-24 hrs normoxia) (μM) (HRE-bla ME-180 cells [2]),Viability 1% FBS AVG (MTT V3-24 hr Normoxia) (μM) (HRE-bla ME-180 cells [3])
400 to 700 nM,15 to 30 µM,CC[C@H](C)[C@H](NC(=O)[C@H](CCCNC(=N)N)NC(=O)[C@H](CC(=O)O)NC(=O)[C@H](CC(C)C)NC(=O)[C@H](C)NC(=O)[C@H](CCSC)NC(=O)[C@]1(C)CCCC=CCCC[C@](C)(NC(=O)[C@H](CCSC)NC(=O)[C@H](Cc2ccccc2)NC(=O)[C@@H](NC(=O)[C@H](CCC(=O)O)NC(=O)[C@H](CCC(=O)O)NC(=O)[C@H](CC(=O)O)NC(=O)[C@@H](NC(=O)[C@H](Cc2ccccc2)NC(C)=O)[C@@H](C)CC)C(C)C)C(=O)N[C@@H](CC(C)C)C(=O)N[C@@H](C(C)C)C(=O)N[C@@H]([C@@H](C)CC)C(=O)N1)C(N)=O [SP-264] (Ac-FIDEEVFM[S5]LVI[S5]MALDRI-NH2; staple 9-13),++ (≤10 but <25: ++),++++ (≥30: ++++)
200 to 400 nM,5 to 15 µM,CCCC[C@H](NC(=O)[C@H](Cc1ccccc1)NC(=O)[C@@H](NC(=O)[C@H](CCC(=O)O)NC(=O)[C@H](CCC(=O)O)NC(=O)[C@H](CC(=O)O)NC(=O)[C@@H](NC(=O)[C@H](Cc1ccccc1)NC(C)=O)[C@@H](C)CC)C(C)C)C(=O)N[C@@]1(C)CCCC=CCCC[C@@](C)(C(=O)N[C@@H](CCCC)C(=O)N[C@@H](C)C(=O)N[C@@H](CC(C)C)C(=O)N[C@@H](CC(=O)O)C(=O)N[C@@H](CCCNC(=N)N)C(=O)N[C@H](C(N)=O)[C@@H](C)CC)NC(=O)[C@H]([C@@H](C)CC)NC(=O)[C@H](C(C)C)NC(=O)[C@H](CC(C)C)NC1=O [SP-265] (Ac-FIDEEVF[Nle][S5]LVI[S5][Nle]ALDRI-NH2; staple 9-13),++++ (≥50: ++++),++++ (≥30: ++++)
400 to 700 nM,15 to 30 µM,CCCC[C@H](NC(=O)[C@H](Cc1ccccc1)NC(=O)[C@@H](NC(=O)[C@H](CCC(=O)O)NC(=O)[C@H](CCC(N)=O)NC(=O)[C@H](CC(=O)O)NC(=O)[C@@H](NC(=O)[C@H](Cc1ccccc1)NC(C)=O)[C@@H](C)CC)C(C)C)C(=O)N[C@@]1(C)CCCC=CCCC[C@@](C)(C(=O)N[C@@H](CCCC)C(=O)N[C@@H](C)C(=O)N[C@@H](CC(C)C)C(=O)N[C@@H](CC(=O)O)C(=O)N[C@@H](CCCNC(=N)N)C(=O)N[C@H](C(N)=O)[C@@H](C)CC)NC(=O)[C@H]([C@@H](C)CC)NC(=O)[C@H](C(C)C)NC(=O)[C@H](CC(C)C)NC1=O [SP-269] (Ac-FIDQEVF[Nle][S5]LVI[S5][Nle]ALDRI-NH2; staple 9-13),+++ (≤25 but <50: +++),++++ (≥30: ++++)
